Measurements: PubChem BioAssay AID1996
≈ marks a conversion by molar mass, not a printed value.

Settings: buffer; pH 7.4; 200.0 µM

SMILES | solubility kinetic [µg/mL]
Cc1cc(C)n(Cc2cc(C(=O)O)c3ccccc3n2)n1 | > 42.2
O=C(O)Cc1ccc(S(=O)(=O)Nc2ccccc2C(=O)O)cc1 | 43.4 (≈ 129 µM)
N#CC(C(=O)c1ccccc1)=C1SCCS1 | 1.8 (≈ 7.28 µM)
O=C(CN1CCCCCC1)Nc1ccc(Cl)cn1 | 35.3 (≈ 132 µM)
C=CCSc1nc2sc3c(c2c(=O)[nH]1)CC(C)(CC)OC3 (centres undefined) | 0.5 (≈ 1.55 µM)
Cc1ccc(C(=O)CCC(=O)N2CCC(C(N)=O)CC2)s1 | > 46.3
COc1ccc(NC(=O)c2ccccc2NC(=O)C2CC=CCC2C(=O)O)cc1 (centres undefined) | > 59.2
COc1ccc(S(=O)(=O)NC2CC3CCC2C3)cc1 (centres undefined) | 36.5 (≈ 130 µM)
CCN(c1ccccc1)S(=O)(=O)c1ccc(N2CCN(c3ccc(OC)cc3)CC2)nc1 | 1.2 (≈ 2.65 µM)
CC(C)OC(=O)NCCOC(=O)Nc1ccc(Cl)cc1 | 36.5 (≈ 121 µM)
Cc1ccccc1C(=O)N1CCN(C(c2ccccc2)c2ccccc2)CC1.Cl | 7.8
N#Cc1ccc(OCC(=O)OCC(=O)NC2CC2)cc1 | > 41.1
O=C(O)c1cn(C2CCCCC2)c2ccccc2c1=O | > 40.7
Cc1ccc(C(=O)Nc2ccc(N3CCN(C)CC3)cc2)cc1 | > 46.4
CC(Sc1nncs1)C(=O)Nc1ccc(S(=O)(=O)Nc2ncccn2)cc1 (centres undefined) | > 63.4
COc1ccc(Nc2cc(C)nc3c(C)cccc23)cc1OC | > 46.3
COc1ccccc1CCNS(=O)(=O)c1cn(C)c(=O)n(C)c1=O | > 53
N#Cc1ccc(OCC(=O)N2CCCC2=O)cc1 | > 36.6
CN(Cc1ccccc1F)C(=O)c1ccc(Oc2ccccc2)cc1 | 4.2 (≈ 12.5 µM)
O=C(C1CC1)N(Cc1nc2ccccc2c(=O)[nH]1)Cc1cccs1 | > 50.9

SMILES | solubility kinetic [µg/mL]
COc1ccc2oc(=N)c(C(=O)Nc3cccc(C)c3C)cc2c1 | < 0.3
CCOc1ccc(S(=O)(=O)NCc2cccnc2)cc1 | > 43.9
CC(=O)NS(=O)(=O)c1ccc(NC(=O)CSc2ccccc2)cc1 | 42.5 (≈ 117 µM)
CCN(Cc1ccccc1)Cc1ccc(OCc2ccccc2)c(OC)c1 | 10.3 (≈ 28.5 µM)
COC(=O)c1sccc1S(=O)(=O)Nc1ccc(Cl)cc1 | 13 (≈ 39.2 µM)
O=C(O)c1cccc(Nc2ccc([N+](=O)[O-])c3nonc23)c1 | > 45
CC(C(=O)c1c[nH]c2ccccc12)N1CCN(C(=O)c2ccco2)CC1 (centres undefined) | > 52.7
Cc1cccc(C)c1NC(=O)C1C2C=CC(C2)C1C(=O)O (centres undefined) | 39.7 (≈ 139 µM)
CCN(Cc1ccncc1)C(=S)NCc1ccccc1 | 42.1 (≈ 148 µM)
Cc1ccnc(NC(=O)Cc2ccc(F)cc2)n1 | > 36.8
CCOC(=O)C1=C(CBr)NC(=O)NC1C (centres undefined) | > 41.6
CC(C)(CO)CNC1CCCN(C2Cc3ccccc3C2)C1 (centres undefined) | 40.5 (≈ 134 µM)
Cc1cc(C)cc(NC(=O)C2CCN(S(C)(=O)=O)CC2)c1 | 38.8 (≈ 125 µM)
O=S1(=O)N=C(Nc2ccc(O)cc2)c2ccccc21 | 11 (≈ 40.1 µM)
CC(=O)NCc1ccc(-c2csc(NC(=O)CCc3nc4ccccc4c(=O)[nH]3)n2)s1 | 7.3 (≈ 16.1 µM)
CC(C)(CO)NC(=O)c1ccc2c(c1)C(=O)c1ccccc1-2 | 43.7 (≈ 148 µM)
OCCC1CN(Cc2cccn2-c2ncccn2)CCN1C1CCCC1 (centres undefined) | 51.5 (≈ 145 µM)
O=C(COC(=O)[C@@H]1CCCN1C(=O)c1cccs1)Nc1ccc(Br)cc1 | 2.4 (≈ 5.49 µM)
CC1(C)C2CC=C(/C=N/NC(=O)C(N)=O)C1C2 (centres undefined) | > 35.3
FC(F)(F)c1ccc2c(c1)NCC1CCCN21 (centres undefined) | 13 (≈ 53.7 µM)

SMILES | solubility kinetic [µg/mL]
CCOc1ccccc1C(=S)NC1CCCCC1 | 14.5 (≈ 55 µM)
CC(NC(=O)CNC(=O)c1cccc(Cl)c1)c1ccccc1 (centres undefined) | 43.7 (≈ 138 µM)
O=C(O)c1ccccc1/C=N/NC(=S)NCc1ccccc1 | > 47
CCOC(=O)c1sc(=S)n(CC)c1NC(=O)c1ccccc1 | 8.8 (≈ 26.2 µM)
O=C(c1ccccc1[N+](=O)[O-])N1CCC2(CC1)OCCO2 | > 43.8
O=C(COC(=O)C1=COCCO1)Nc1ccc(F)c(F)c1 | 4.6 (≈ 15.4 µM)
CCOC(=O)N1CCC(NS(=O)(=O)c2ccc(C)c(Cl)c2)CC1 | > 54.1
CCN(CC)c1cc(C)c2cc(NC(=O)c3cccs3)ccc2n1 | < 0.2
Clc1ccc(-c2cn3cc(Cl)ccc3n2)cc1 | < 0.3
CN(C)/C(=N\S(=O)(=O)c1ccc(Cl)cc1)c1ccc(F)cc1 | > 51.1
CCOc1ccccc1NC(=O)CCNC(=O)c1ccc(Cl)cc1 | 5.6 (≈ 16.1 µM)
O=C(C[n+]1ccc(/C=N/O)cc1)NC(=O)Nc1ccccc1 | 41.6
CC(=O)OCc1c(C)cc(C)c(/C=C(/C#N)C(N)=O)c1C | > 42.9
COC(=O)CSc1nc2ccccc2c(=O)n1Cc1ccccc1 | 0.7 (≈ 2.06 µM)
CC1CCCCC1NC(=O)COc1ncnc2sccc12 (centres undefined) | > 45.8
CCc1ccc(NC(=S)N2CCCC2)cc1 | > 35.2
Cc1[nH]c(C(=O)O)c(C#N)c1C(=O)c1ccccc1 | > 38.1
O=C(CN1N=C(c2ccccc2)CCC1=O)NCc1ccccc1 | > 48.2
Cn1c(=S)n(C)c2ccccc21 | > 26.7
